Experimental data from paper PMC5076529, “Binding Sites for Acylated Trehalose Analogs of Glycolipid Ligands on an Extended Carbohydrate Recognition Domain of the Macrophage Receptor Mincle” (The Journal of Biological Chemistry, 2016).

Experiments:
[1] = target: T1, mincle minimal CRD (bovine) (Bos taurus, UniProt E1BHM0, I174T); experiment: competition with […]-mannose-BSA on immobilized CRD; type: binding
T1 construct: gene CLEC4E; minimal C-type carbohydrate recognition domain, N-terminally truncated, lacks disulfide 4; E. coli, renatured from inclusion bodies
T1 sequence (E1BHM0 79-211 I174T): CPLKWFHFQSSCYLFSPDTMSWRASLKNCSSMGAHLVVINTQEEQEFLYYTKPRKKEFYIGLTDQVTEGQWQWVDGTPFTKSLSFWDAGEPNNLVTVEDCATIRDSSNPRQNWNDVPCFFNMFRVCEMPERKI

[2] = target: T2, mincle extended CRD (bovine) (Bos taurus, UniProt E1BHM0, I174T); experiment: X-ray crystallography, […] Å; settings: pH 5.6 reservoir; primary sugar-binding site, conserved Ca2+; second substituent not visible
T2 construct: gene CLEC4E; extended CRD from Glu-64 to C terminus with one extra N-terminal Ala, includes disulfide 4; E. coli BL21(DE3) inclusion bodies, renatured, trehalose-Sepharose
T2 sequence (E1BHM0 64-211 I174T): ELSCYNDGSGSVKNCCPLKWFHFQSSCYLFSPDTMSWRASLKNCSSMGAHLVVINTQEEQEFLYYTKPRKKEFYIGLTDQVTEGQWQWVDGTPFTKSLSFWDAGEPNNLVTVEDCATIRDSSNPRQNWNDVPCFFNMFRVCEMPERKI

[3] = target: T2, mincle extended CRD (bovine); experiment: X-ray crystallography, […] Å; settings: pH 5.5 reservoir; primary sugar-binding site, conserved Ca2+
[4] = target: T1, mincle minimal CRD (bovine); experiment: X-ray crystallography, […] Å; settings: pH 5.6; primary sugar-binding site, conserved Ca2+; acyl chain only partly visible

SMILES	Ki [1]	other results
CCCCCC(=O)OC[C@H]1O[C@H](O[C@H]2O[C@H](COC(=O)CCCCC)[C@@H](O)[C@H](O)[C@H]2O)[C@H](O)[C@@H](O)[C@@H]1O [Dihexanoate]	8.2 ± 0.3 µM	–
CC(C)C(=O)OC[C@H]1O[C@H](O[C@H]2O[C@H](COC(=O)C(C)C)[C@@H](O)[C@H](O)[C@H]2O)[C@H](O)[C@@H](O)[C@@H]1O [Diisobutyrate]	370 ± 40 µM	–
CCCCC(=O)OC[C@H]1O[C@H](O[C@H]2O[C@H](COC(=O)CCCC)[C@@H](O)[C@H](O)[C@H]2O)[C@H](O)[C@@H](O)[C@@H]1O [Divalerate]	59 ± 2 µM	–
CCCCCCCCCC(=O)OC[C@H]1O[C@H](O[C@H]2O[C@H](CO)[C@@H](O)[C@H](O)[C@H]2O)[C@H](O)[C@@H](O)[C@@H]1O [Monodecanoate]	5.1 ± 0.6 µM	–
CCCCCCCCCCCC(=O)OC[C@H]1O[C@H](O[C@H]2O[C@H](CO)[C@@H](O)[C@H](O)[C@H]2O)[C@H](O)[C@@H](O)[C@@H]1O [Monododecanoate]	3.1 ± 0.5 µM	–
CCCCCCC(=O)OC[C@H]1O[C@H](O[C@H]2O[C@H](CO)[C@@H](O)[C@H](O)[C@H]2O)[C@H](O)[C@@H](O)[C@@H]1O [Monoheptanoate]	137 ± 18 µM	–
COc1cccc(C(=O)OC[C@H]2O[C@H](O[C@H]3O[C@H](COC(=O)c4cccc(OC)c4OC)[C@@H](O)[C@H](O)[C@H]3O)[C@H](O)[C@@H](O)[C@@H]2O)c1OC [brartemicin analog]	–	X-ray crystallography, 1.80 Å [2]: The structure of mincle bound to a synthetic analog of brartemicin was also examined
Cc1cc(O)cc(O)c1C(=O)OC[C@H]1O[C@H](O[C@H]2O[C@H](COC(=O)c3c(C)cc(O)cc3O)[C@@H](O)[C@H](O)[C@H]2O)[C@H](O)[C@@H](O)[C@@H]1O [brartemicin]	–	X-ray crystallography, 2.20 Å [3]: structures of the extended CRD bound to either natural brartemicin or a synthetic analog
CCCC(=O)OC[C@H]1O[C@H](O[C@H]2O[C@H](CO)[C@@H](O)[C@H](O)[C@H]2O)[C@H](O)[C@@H](O)[C@@H]1O [trehalose monobutyrate]	–	X-ray crystallography, 2.10 Å [4]: Co-crystals of trehalose monobutyrate and the CRD of mincle were examined
